Read-outs that look alike come from different tables or passages of the source.

From patent publication US5916908A, “Pharmaceutical pyrazole compositions useful as inhibitors of protein kinases” (COR Therapeutics, Inc., priority 1995, dated 1999) come the findings set out here.

One assay deals with T1, human alpha PDGFR (Homo sapiens, UniProt P16234).
T1 construct: expressed in transfected cells; host or cells: 32D-αR (mouse hematopoietic cell line 32D)
The experiment in a line: alpha PDGFR autophosphorylation in 32D-αR cells. To be noted: for inhibition of protein kinase activity of αPDGFR: compounds of Table 1B, evaluated similar to Example 1. Format: cell-based. From the text: The stimulation of cell proliferation by growth factors such as PDGF, FGF and EGF is dependent upon their induction of autophosphorylation of each of their respective receptor's tyrosine kinases. Therefore, the ability of a PTK inhibitor to block cellular proliferation induced by these growth factors is directly correlated with its ability to block receptor autophosphorylation. To measure alpha PDGFR autophosphorylation a previously described mouse hematopoietic cell line, 32D-αR, which had been engineered to overexpresses the human alpha PDGFR was used. These cells were grown in suspension to 10^6 cells/ml in RPMI (Gibco BRL) media containing 10% fetal bovine serum and 5% WEHI conditioned media (tissue culture media conditioned by WEHI cells available from ATCC) as previously described. The cells were pelleted by low speed centrifugation and resuspended in serum-free RPMI prior to distribution at 500,000 cells/well in 96 well conical bottom microtiter plates (Falcon). Compounds (0.01-30 μM) were added to the wells at room temperature 15 minutes prior to the addition of PDGF AA (15 ng/ml) and the incubation was continued on ice for 90 minutes in a final incubation volume of 100 μl. The cells were then pelleted at 2000 rpm for 10 minutes at 4° C. and 50 μl of freshly prepared lysis buffer (20 mM Tris at pH 7.3, 150 mM NaCl, 1% Triton X-100, 1 mM phenylmethyl-sulfonyl fluoride (PMSF), 1 mM sodium orthovanadate, […] and 10 mg/ml leupeptin) was added directly to each well, incubation was continued for 10 minutes on ice and cell lysis was facilitated by vigorous agitation on a plate shaker. The cell lysates were cleared by centrifugation at 2,000 rpm for 10 minutes prior to analysis.
In a separate microtiter plate, monoclonal antibodies (prepared at COR Therapeutics, Inc.) directed against the extracellular domain of the alpha PDGFR (MAb αR10) or the beta PDGFR (MAb 1B5B11) were immobilized by incubating 0.5 μg of antibody per well at 4° C. for 18 hours in 23 mM Tris at pH 8.0, 68 mM NaCl, 14 mM ammonium bicarbonate and 0.01% sodium azide. Unbound antibody was removed and the wells were blocked with 25 mM N-(2-hydroxyethyl)piperazine-N'-(2-ethanesulfonic acid) (HEPES) pH 7.6, 100 mM NaCl, and 0.2% Tween 20 just prior to the addition of cell lysate that had been diluted 1:2 in binding buffer (blocking buffer with 0.3% gelatin). 32D-αR or HR5-βR cell lysate was incubated with immobilized MAb αR10 or MAb 1B5B11, respectively, for 2 hours at room temperature and wells were washed 3 times with 200 μl of wash buffer (phosphate buffered saline "PBS", 0.01% Tween 20). […] Product formation was monitored at 650 nm using a microtiter plate reader (Molecular Devices).

The next assay relates to CCD18 cells. The experiment in a line: inhibition of cell proliferation under normal tissue culture conditions, CCD18. To be noted: Homo sapiens, 96 h, read-out: IC50 CCD18. Format: cell-based.
The subject of another assay is HR5-βR cells. The experiment in a line: inhibition of cell proliferation under normal tissue culture conditions, HR5-βR. The settings on record: for IC50: Cricetulus griseus.
Another assay has as its system HS27 cells. The experiment in a line: inhibition of cell proliferation under normal tissue culture conditions, HS27. The settings on record: Homo sapiens, HS27, 96 h, read-out: IC50 HS27.
A further assay has as its system WS1 cells. Kind of assay: inhibition of cell proliferation under normal tissue culture conditions, WS1. To be noted: Homo sapiens, WS1, 96 h, read-out: IC50 WS1.
Assay [1] concerns human cell lines (HS68, HS 27, CCD18, WS1). Kind of assay: inhibition of proliferation of human cell lines under standard tissue culture conditions (collective statement).
For the next assay, the target named is T2, human FGFR-1 (Homo sapiens, UniProt P11362).
T2 construct: expressed in transfected cells; host or cells: CHO
T2 sequence (P11362 22-822): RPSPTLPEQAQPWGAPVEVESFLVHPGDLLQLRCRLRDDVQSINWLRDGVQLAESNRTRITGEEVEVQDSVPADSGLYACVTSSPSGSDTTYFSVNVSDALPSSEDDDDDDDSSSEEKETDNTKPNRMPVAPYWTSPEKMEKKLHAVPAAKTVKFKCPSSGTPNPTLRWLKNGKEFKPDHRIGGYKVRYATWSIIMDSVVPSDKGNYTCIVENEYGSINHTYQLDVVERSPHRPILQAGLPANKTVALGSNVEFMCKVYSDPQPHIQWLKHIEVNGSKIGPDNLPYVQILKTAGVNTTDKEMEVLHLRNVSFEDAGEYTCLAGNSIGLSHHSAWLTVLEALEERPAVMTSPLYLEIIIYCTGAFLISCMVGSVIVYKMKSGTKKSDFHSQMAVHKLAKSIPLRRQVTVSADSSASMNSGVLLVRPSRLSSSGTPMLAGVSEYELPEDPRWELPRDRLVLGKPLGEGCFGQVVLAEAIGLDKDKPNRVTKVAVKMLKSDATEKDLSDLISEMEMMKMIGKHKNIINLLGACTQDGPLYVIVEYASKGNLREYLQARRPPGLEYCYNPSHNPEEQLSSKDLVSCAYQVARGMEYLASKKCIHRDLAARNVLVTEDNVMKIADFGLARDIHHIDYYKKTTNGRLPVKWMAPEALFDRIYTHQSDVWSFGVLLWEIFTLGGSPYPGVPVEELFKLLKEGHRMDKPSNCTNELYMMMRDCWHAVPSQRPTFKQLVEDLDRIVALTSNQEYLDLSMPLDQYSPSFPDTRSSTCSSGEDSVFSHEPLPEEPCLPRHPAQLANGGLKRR
Kind of assay: FGFR-1 autophosphorylation in CHO cells. It is filed as cell-based. As for the experimental part:
In order to measure FGFR-1 autophosphorylation, the human FGFR-1 cDNA was stably over-expressed in CHO cells using standard techniques. These cells were grown to confluency in RPMI with 10% fetal bovine serum, the media was replaced with serum-free RPMI and incubation continued for 18 hours prior to stimulation with βFGF (75 ng/ml) for 10 min. at 37° C. in the absence or presence of PTK inhibitors in a concentration range of 0.1-30 μM. Cell lysates were prepared under the same conditions as described above for the EGFR assay. Lysates were incubated with a monoclonal antibody directed against the FGFR-1 extracellular domain (MAb 1H9D3 which was prepared at COR) and the immunoprecipitated receptor was subjected to SDS-PAGE and Western blot analysis with 4G10 horse radish peroxidase conjugated antiphosphotyrosine antibodies (UBI) and detection was done by chemiluminescence (Amersham).

The next assay has as its target src-kinase (Homo sapiens, UniProt P12931). The experiment in a line: inhibition of recombinant c-src kinase. The settings on record: for potency on src kinase activity compared with PDGFR kinase activity: src vs PDGFR.
The next assay concerns Protein Kinase C (PKC). Kind of assay: Protein Kinase C assay (non-radioactive). The settings on record: 40 μM.
The next assay has as its target human beta PDGFR (Homo sapiens, UniProt P09619). Kind of assay: beta PDGFR autophosphorylation in HR5-βR cells. To be noted: for inhibition of protein kinase activity of βPDGFR: compounds of Table 1B, evaluated similar to Example 1.
Another assay relates to HS68 cells. The experiment in a line: inhibition of cell proliferation under normal tissue culture conditions, HS68. The settings on record: Homo sapiens, Hs68, 96 h, read-out: IC50 HS68.
For another assay, the system named is 32D-αR cells. Kind of assay: PDGF induced proliferation ([3H]thymidine incorporation) in 32D-αR cells. Format: cell-based. To be noted: Mus musculus. As for the experimental part:
Briefly, 32D-αR cells were grown in interleukin 3 (IL-3)-conditioned RPMI media with 10% fetal bovine serum and washed 2 times with RPMI with 10% fetal bovine serum, resuspended at 5×10^5 cells/ml in the same media and then dispensed at 250 μl/well in 24 well plates (Falcon). […] The cells were incubated for 43 hours followed for a further 3 hour incubation with [^3 H]thymidine (10 μCi/well). The cells are then harvested with an automated cell harvester, filters are placed in liquid scintillation mixture and counted in a β counter.

Another assay concerns the target Protein Kinase A (PKA) (Homo sapiens, UniProt P17612). The experiment in a line: Protein Kinase A assay (non-radioactive).
The target of the next assay is EGFR (Homo sapiens, UniProt P00533). Kind of assay: EGFR autophosphorylation in MDA MB 468 cells. The settings on record: EGF 100 ng/ml. Format: cell-based.
Chain of EGFR (P00533 25-1210): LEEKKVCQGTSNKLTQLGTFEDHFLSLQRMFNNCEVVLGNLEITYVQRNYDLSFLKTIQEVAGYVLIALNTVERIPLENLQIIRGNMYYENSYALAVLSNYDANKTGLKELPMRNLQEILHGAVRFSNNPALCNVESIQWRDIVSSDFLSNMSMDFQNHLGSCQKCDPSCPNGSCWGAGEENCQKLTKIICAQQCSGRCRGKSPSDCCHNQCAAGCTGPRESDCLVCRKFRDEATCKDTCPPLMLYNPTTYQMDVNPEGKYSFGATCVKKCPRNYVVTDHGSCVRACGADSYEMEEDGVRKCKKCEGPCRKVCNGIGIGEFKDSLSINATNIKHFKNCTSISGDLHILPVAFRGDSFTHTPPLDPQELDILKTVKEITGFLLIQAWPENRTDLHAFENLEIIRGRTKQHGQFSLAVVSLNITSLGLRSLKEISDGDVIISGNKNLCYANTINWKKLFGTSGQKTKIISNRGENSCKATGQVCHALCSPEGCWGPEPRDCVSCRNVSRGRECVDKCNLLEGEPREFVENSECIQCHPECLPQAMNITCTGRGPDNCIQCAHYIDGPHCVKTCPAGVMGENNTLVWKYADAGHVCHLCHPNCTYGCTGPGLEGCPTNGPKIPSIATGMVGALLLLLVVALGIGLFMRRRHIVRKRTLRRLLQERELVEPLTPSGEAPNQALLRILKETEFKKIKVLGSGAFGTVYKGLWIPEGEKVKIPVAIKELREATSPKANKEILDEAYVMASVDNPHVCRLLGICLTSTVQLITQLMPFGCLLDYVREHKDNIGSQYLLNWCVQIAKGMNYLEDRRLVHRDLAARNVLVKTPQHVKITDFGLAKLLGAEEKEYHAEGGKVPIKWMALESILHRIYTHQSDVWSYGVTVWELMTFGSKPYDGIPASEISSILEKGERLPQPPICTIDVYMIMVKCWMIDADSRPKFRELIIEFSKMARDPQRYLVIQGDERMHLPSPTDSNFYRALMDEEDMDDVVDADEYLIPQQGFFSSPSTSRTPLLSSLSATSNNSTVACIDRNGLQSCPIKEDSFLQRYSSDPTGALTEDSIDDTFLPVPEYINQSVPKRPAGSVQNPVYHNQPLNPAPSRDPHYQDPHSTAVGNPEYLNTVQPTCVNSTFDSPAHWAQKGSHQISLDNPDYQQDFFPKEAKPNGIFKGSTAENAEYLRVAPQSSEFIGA

Chain of human beta PDGFR (P09619 33-1106): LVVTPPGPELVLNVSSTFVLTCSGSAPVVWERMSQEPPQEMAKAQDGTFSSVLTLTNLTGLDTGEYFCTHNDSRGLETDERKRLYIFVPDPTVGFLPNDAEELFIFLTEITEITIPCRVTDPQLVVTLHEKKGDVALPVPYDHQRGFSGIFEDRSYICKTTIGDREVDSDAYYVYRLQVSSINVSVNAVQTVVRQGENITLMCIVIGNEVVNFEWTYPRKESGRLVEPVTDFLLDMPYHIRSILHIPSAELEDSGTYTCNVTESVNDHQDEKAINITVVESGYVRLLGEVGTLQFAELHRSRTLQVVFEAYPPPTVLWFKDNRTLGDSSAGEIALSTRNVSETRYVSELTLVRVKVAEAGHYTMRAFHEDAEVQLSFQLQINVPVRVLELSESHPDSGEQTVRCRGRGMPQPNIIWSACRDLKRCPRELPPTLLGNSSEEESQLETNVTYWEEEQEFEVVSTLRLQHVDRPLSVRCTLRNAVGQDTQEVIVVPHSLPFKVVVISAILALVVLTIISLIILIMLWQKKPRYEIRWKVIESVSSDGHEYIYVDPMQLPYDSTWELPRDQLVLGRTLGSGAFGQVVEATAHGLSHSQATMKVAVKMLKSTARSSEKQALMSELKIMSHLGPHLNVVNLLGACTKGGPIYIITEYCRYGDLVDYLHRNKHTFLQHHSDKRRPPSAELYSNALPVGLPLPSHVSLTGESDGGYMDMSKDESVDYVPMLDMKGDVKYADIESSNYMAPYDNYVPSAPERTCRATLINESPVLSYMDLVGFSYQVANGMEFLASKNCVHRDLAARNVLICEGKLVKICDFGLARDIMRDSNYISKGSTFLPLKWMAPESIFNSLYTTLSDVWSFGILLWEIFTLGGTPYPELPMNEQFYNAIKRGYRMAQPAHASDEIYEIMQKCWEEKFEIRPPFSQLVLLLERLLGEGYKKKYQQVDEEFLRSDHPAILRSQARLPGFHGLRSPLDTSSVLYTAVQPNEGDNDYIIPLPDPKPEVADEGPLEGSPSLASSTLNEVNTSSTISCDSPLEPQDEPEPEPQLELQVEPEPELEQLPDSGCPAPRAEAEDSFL
T1 sequence (P16234 24-1089): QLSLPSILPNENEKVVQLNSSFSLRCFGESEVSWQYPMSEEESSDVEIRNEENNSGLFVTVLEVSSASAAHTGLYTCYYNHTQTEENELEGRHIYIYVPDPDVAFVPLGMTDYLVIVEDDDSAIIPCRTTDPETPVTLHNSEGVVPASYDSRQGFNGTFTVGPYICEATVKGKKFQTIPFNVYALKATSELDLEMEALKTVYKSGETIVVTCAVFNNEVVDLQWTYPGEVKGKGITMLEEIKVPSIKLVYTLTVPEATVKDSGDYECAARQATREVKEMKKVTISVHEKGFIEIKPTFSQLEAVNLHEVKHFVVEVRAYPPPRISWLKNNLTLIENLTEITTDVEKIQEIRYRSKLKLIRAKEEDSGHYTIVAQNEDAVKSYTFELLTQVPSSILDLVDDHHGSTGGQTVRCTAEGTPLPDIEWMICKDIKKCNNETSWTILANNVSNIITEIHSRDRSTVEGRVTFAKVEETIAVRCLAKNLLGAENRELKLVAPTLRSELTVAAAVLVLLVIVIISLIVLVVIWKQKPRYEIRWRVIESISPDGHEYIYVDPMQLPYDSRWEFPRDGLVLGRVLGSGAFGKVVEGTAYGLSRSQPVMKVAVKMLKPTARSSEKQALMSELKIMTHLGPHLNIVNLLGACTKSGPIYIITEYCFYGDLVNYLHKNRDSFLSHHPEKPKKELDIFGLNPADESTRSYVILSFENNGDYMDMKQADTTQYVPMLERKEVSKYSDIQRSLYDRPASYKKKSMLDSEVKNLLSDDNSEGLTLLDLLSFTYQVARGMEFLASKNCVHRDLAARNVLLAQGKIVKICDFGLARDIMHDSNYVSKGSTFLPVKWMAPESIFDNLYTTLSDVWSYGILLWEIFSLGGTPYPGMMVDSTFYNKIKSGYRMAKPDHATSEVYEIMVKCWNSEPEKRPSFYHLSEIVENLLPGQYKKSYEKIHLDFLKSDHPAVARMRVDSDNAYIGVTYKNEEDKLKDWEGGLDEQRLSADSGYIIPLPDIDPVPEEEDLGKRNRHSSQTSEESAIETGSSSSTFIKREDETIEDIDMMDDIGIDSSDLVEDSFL
Chain of src-kinase (P12931 whole entry): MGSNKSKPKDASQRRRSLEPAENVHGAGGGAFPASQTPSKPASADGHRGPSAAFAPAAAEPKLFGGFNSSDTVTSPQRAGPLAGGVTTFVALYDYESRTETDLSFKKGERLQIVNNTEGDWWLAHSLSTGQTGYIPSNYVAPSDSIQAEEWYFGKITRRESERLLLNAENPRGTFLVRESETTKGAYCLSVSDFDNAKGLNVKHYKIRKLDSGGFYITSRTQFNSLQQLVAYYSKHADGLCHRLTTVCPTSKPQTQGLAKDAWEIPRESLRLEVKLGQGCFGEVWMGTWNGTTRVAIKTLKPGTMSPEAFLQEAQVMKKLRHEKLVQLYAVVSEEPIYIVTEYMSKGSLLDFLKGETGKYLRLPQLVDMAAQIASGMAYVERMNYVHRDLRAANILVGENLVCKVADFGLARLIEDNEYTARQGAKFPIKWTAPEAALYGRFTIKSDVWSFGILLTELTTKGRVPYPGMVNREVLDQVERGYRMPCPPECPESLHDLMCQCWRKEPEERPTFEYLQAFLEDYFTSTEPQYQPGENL
Method for EGFR: These cells were grown to confluency in 6-well plates and incubated in serum-free Dulbecco's Modified Eagle Medium (DMEM) 18 hours. The cells were exposed to various concentrations (0.01-30 μM) of compounds for 15 minutes and then to EGF (100 ng/ml) for 10 minutes at 37° C. The cells were scraped and lysates were prepared in the same buffer as described for 32D-αR cells prior to fractionation by conventional SDS PAGE followed by Western blot analysis. For this, proteins were transferred onto nitrocellulose and the membrane was blocked in Tris buffer saline (TBS), pH 7.0, 0.1% Tween 20, 5% dry milk. The membrane was blotted with anti-phosphotyrosine antibody (UBI, 1 μg/ml) in binding buffer (TBS, 0.1% Tween 20; 1% dry milk) for 2 hours at room temperature. Detection was performed using a goat anti-rabbit-horseradish peroxidase conjugated IgG (Boehringer Mannheim). The blot was developed using a chemiluminescent system (Amersham).

Turning to `O=C(Nc1cc(-c2ccccc2)[nH]n1)c1ccccc1` [Compound 1, 3-benzoylamino-5-phenylpyrazole], the IC50 on human alpha PDGFR (Table 2, autophosphorylation, 32D-αR cells, PDGF AA 15 ng/ml, read-out: IC50 αPDGFR) was 170 nM; in the assay with CCD18 cells, above 30000 nM; with HR5-βR cells (96 h, read-out: IC50 HRS-βR), 28000 nM; in the assay on HS27 cells it was above 30000 nM; in the assay with WS1 cells it was above 30000 nM; against human FGFR-1 (Table 2, autophosphorylation, CHO cells, βFGF 75 ng/ml), above 30000 nM. Moreover, the IC50 is 8000 nM at src-kinase; 220 nM at human beta PDGFR; above 30000 nM with HS68 cells; 700 nM in the assay on 32D-αR cells (read-out: concentration blocking PDGF induced thymidine incorporation by 50%); above 40000 nM at Protein Kinase A (PKA). Also, the “inhibition of alpha PDGFR autophosphorylation” value on human alpha PDGFR (compared with beta receptor) is on record as “inhibit alpha PDGFR autophosphorylation over the same concentration range as that observed for the beta receptor”. Moreover, the inhibition at 30 µM in assay [1] (Homo sapiens, 96 h, read-out: decrease in cell growth of human cell lines) lay in the range of 10 to 20%. The “decrease in cell growth of human cell lines” value in [1] (concentrations up to 10 μM) was “no decrease in cell growth”. For the same compound, the “inhibition of FGFR-1 autophosphorylation” value against human FGFR-1 (concentrations as high as 30 μM) is recorded as “no detectable inhibition”. Also, the “potency on src kinase activity compared with PDGFR kinase activity” value (“potency … compared with PDGFR kinase activity” for short) on src-kinase was “selective for inhibiting PDGFR kinase activity”. Besides, the “reduction in PKC activity” value in the assay on Protein Kinase C (PKC) is on record as below 50%. Also, at human beta PDGFR (read-out: concentration at which inhibition of beta PDGFR autophosphorylation was maximal), the IC (maximal) was 5 µM. In addition, the IC100 with 32D-αR cells (PDGF AA 30 ng/ml, FIG. 2, read-out: concentrations at which mitogenicity was completely inhibited) is above 1 µM. Further, the inhibition at 40 µM at Protein Kinase A (PKA) (read-out: reduction in PKA activity) was below 50%.
For `O=C(Nc1cc(-c2ccc(Cl)cc2)n[nH]1)c1ccccc1` [Compound 45], the “inhibition of protein kinase activity of αPDGFR” value at human alpha PDGFR is “exhibited the best activities”. Besides, the “inhibition of protein kinase activity of βPDGFR” value at human beta PDGFR is reported as “exhibited the best activities”.
`O=C(Nc1cc(-c2cccs2)n[nH]1)c1ccccc1` [Compound 46]: the “inhibition of protein kinase activity of αPDGFR” value at human alpha PDGFR is recorded as “exhibited the best activities”. Besides, the “inhibition of protein kinase activity of βPDGFR” value against human beta PDGFR is reported as “exhibited the best activities”.
As to `COC(=O)[C@@]1(O)C[C@H]2O[C@]1(C)n1c3ccccc3c3c4c(c5c6ccccc6n2c5c31)C(=O)NC4` [Compound K252a], in the assay with HR5-βR cells, the “HR5-βR growth inhibition compared with inhibition of PDGFR phosphorylation” value is “lower concentrations than those required to inhibit PDGFR phosphorylation”. For the same compound, the IC50 came to 130 nM in the assay on HR5-βR cells (96 h, read-out: IC50 HRS-βR); 130 nM in the assay on HR5-βR cells (read-out: IC50 HR5-βR cell growth); 20 nM at src-kinase (read-out: IC50 src-kinase, recombinant c-src, 50 μM ATP); 20 nM at src-kinase (read-out: src kinase IC50, recombinant c-src); 1000 nM against EGFR. The “potency … compared with PDGFR kinase activity” value at src-kinase is listed as “equally or more potent at inhibiting src kinase activity as they are PDGFR kinase activity”.
With `CN[C@@H]1C[C@H]2O[C@@](C)([C@@H]1OC)n1c3ccccc3c3c4c(c5c6ccccc6n2c5c31)C(=O)NC4` [Staurosporin, reference compound], the “growth of all of the human cell lines” value in assay [1] (0.01 μM) is given as “completely blocked”. For the same compound, at src-kinase, the “potency … compared with PDGFR kinase activity” value is reported as “equally or more potent at inhibiting src kinase activity as they are PDGFR kinase activity”.
